Assay results reported in patent US8975398B2, “NAMPT inhibitors” (AbbVie Inc., priority 2012, dated 2015).
pIC50: −log10 of the molar value.

How the values were obtained:
NAMPT = NAMPT (Homo sapiens, UniProt P43490); assay: Time-Resolved Fluorescence Resonance Energy Transfer (TR-FRET) Binding Assay of NAMPT with PRPP; settings: 2 nM NAMPT, 2 nM probe, 200 uM PRPP and 2.5 mM ATP, equilibrated 16 hours
Method in brief: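 Final mix: 2 nM NAMPT, 2 nM probe, 1 nM Tb-anti-His antibody, 200 uM PRPP, 2.5 mM ATP, 2% DMSO in 1× assay buffer. Equilibrated 16 hours before TR-FRET read, allowing possible enzymatic modification of compounds.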

[1] = biological target: NAMPT (human, recombinant, C-terminally His-tagged) (Homo sapiens, UniProt P43490); assay: Time-Resolved Fluorescence Resonance Energy Transfer (TR-FRET) Binding Assay of NAMPT; settings: 6.8 nM NAMPT, 200 nM probe, equilibrated 3 hours, absence of substrates
Sequence of NAMPT (human, recombinant, C-terminally His-tagged) (P43490 whole entry): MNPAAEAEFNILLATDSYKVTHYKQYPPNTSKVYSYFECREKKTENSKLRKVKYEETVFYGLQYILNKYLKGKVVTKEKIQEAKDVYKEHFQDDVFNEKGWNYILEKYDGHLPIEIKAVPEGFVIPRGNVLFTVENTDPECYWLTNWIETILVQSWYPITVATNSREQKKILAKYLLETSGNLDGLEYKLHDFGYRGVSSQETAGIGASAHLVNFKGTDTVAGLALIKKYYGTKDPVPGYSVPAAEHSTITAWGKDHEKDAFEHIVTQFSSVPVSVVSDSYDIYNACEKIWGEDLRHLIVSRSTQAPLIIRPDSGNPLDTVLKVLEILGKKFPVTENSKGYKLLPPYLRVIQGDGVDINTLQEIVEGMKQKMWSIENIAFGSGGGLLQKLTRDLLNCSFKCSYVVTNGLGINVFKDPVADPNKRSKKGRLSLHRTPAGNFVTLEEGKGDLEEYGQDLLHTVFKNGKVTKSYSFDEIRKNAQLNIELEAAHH
Method in brief: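 Recombinant C-terminally His-tagged human NAMPT (6.8 nM) incubated 3 h at room temperature with 200 nM Oregon Green 488–labelled nicotinamide-competitive probe and 1 nM Tb-anti-His antibody in HEPES pH 7.5, 2% DMSO. TR-FRET ratio Em520/Em495 normalized to controls; IC50 from four-parameter logistic fit.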

Sequence of NAMPT (P43490 whole entry): as above

| SMILES | pIC50 (NAMPT) | pIC50 [1] |
| --- | --- | --- |
| O=C(Nc1ccc(OC2CN(C(=O)C3CCCCC3)C2)cc1)C1CN(c2ccnnc2)C1 [Example 255, N-(4-{[1-(cyclohexylcarbonyl)azetidin-3-yl]oxy}phenyl)-1-(pyridazin-4-yl)azetidine-3-carboxamide] | 7.42 | 7.33 |
| CC(C)(C)CCN1CCC(c2ccc(NC(=O)C3CN(c4cccnc4)C3)cc2)CC1 [Example 87, N-{4-[1-(3,3-dimethylbutyl)piperidin-4-yl]phenyl}-1-(pyridin-3-yl)azetidine-3-carboxamide] | 8.90 | 5.86 |
| CCC(C)CC(=O)N1CCC(c2ccc(NC(=O)C3CN(c4cccnc4C)C3)cc2)CC1 (centres unmarked) [Example 160, N-{4-[1-(3-methylpentanoyl)piperidin-4-yl]phenyl}-1-(2-methylpyridin-3-yl)azetidine-3-carboxamide] | 7.15 | 7.13 |
| O=C(Nc1ccc(OC2CCN(C(=O)CC3CCOCC3)CC2)cc1)C1CN(c2cnccc2F)C1 [Example 6, 1-(4-fluoropyridin-3-yl)-N-(4-{[1-(tetrahydro-2H-pyran-4-ylacetyl)piperidin-4-yl]oxy}phenyl)azetidine-3-carboxamide] | 8.63 | 6.26 |
| Cc1ncccc1N1CC(C(=O)Nc2ccc(C3CCN(C(=O)c4cccs4)CC3)cc2)C1 [Example 187, 1-(2-methylpyridin-3-yl)-N-{4-[1-(thiophen-2-ylcarbonyl)piperidin-4-yl]phenyl}azetidine-3-carboxamide] | 7.56 | 7.99 |
| CCCN1CCC(Oc2ccc(NC(=O)C3CN(c4cccnc4)C3)cc2)CC1 [Example 81, N-{4-[(1-propylpiperidin-4-yl)oxy]phenyl}-1-(pyridin-3-yl)azetidine-3-carboxamide] | 8.95 | 5.43 |
| O=C(Nc1ccc(OC2CCN(C(=O)Cc3ccc(F)cc3F)CC2)cc1)C1CN(c2cccnn2)C1 [Example 236, N-[4-({1-[(2,4-difluorophenyl)acetyl]piperidin-4-yl}oxy)phenyl]-1-(pyridazin-3-yl)azetidine-3-carboxamide] | 8.95 | 6.89 |

Further molecules by rising pIC50 (NAMPT), results first:

| pIC50 (NAMPT) | pIC50 [1] | SMILES |
| --- | --- | --- |
| 6.65 | 5.54 | Cc1ncccc1N1CC(C(=O)Nc2ccc(C3CCN(C(=O)c4cccnn4)CC3)cc2)C1 [Example 158, 1-(2-methylpyridin-3-yl)-N-{4-[1-(pyridazin-3-ylcarbonyl)piperidin-4-yl]phenyl}azetidine-3-carboxamide] |
| 7.15 | 6.84 | Cc1ncccc1N1CC(C(=O)Nc2ccc(C3CCN(C(=O)CC4CCCC4)CC3)cc2)C1 [Example 162, N-{4-[1-(cyclopentylacetyl)piperidin-4-yl]phenyl}-1-(2-methylpyridin-3-yl)azetidine-3-carboxamide] |
| 7.28 | 6.78 | O=C(Nc1ccc(OC2CCN(C(=O)c3cscn3)CC2)cc1)C1CN(c2ccnnc2)C1 [Example 272, 1-(pyridazin-4-yl)-N-(4-{[1-(1,3-thiazol-4-ylcarbonyl)piperidin-4-yl]oxy}phenyl)azetidine-3-carboxamide] |
| 7.33 | 6.95 | O=C(Nc1ccc(OC2CCN(C(=O)C3CCOCC3)CC2)cc1)C1CN(c2ccnnc2)C1 [Example 306, 1-(pyridazin-4-yl)-N-(4-{[1-(tetrahydro-2H-pyran-4-ylcarbonyl)piperidin-4-yl]oxy}phenyl)azetidine-3-carboxamide] |
| 9.14 | 7.45 | Cc1cccc(C(=O)N2CCC(c3ccc(NC(=O)C4CN(c5cccnn5)C4)cc3)CC2)c1 [Example 341, N-{4-[1-(3-methylbenzoyl)piperidin-4-yl]phenyl}-1-(pyridazin-3-yl)azetidine-3-carboxamide] |
| 9.21 | 7.02 | N#Cc1cccc(C(=O)N2CCC(c3ccc(NC(=O)C4CN(c5cccnn5)C4)cc3)CC2)c1 [Example 352, N-{4-[1-(3-cyanobenzoyl)piperidin-4-yl]phenyl}-1-(pyridazin-3-yl)azetidine-3-carboxamide] |
